Data on 1 compound can be found in patent publication US20240271138A1, “METHODS AND COMPOSITIONS FOR MODULATING STING SIGNALING AND INNATE IMMUNE RESPONSES” (The Broad Institute, Inc., priority 2021, published 2024).

Format in all cases: cell-based, human
One test deals with STING ubiquitination. The experiment in a line: FLAG-ubiquitin immunoprecipitation of STING in 293T STING-HA / FLAG-ubiquitin cells. Particulars: 2′3′-cGAMP, 2 hours; 0.5 μM MLN7243; FIG. 12A. As for the experimental part:
293T cells were transduced with pTRIP-hPGK-Blast-2A-STING-HA and pTRIP-hPGK-Hygro-2A-FLAG-Ubiquitin and selected with […] Blasticidin (Invivogen) and 320 μg/mL Hygromycin (Invivogen) for one week. 1 million cells/well were plated in a 6 well plate the day prior to the stimulation. Cells were then stimulated with 300 μL cGAMP permeabilization buffer containing 1 μg/mL cGAMP for 10 minutes, washed with 3 mL of warm medium, and the medium was replaced. 3 wells per condition were harvested 2 hours post stimulation, washed with PBS and lysed with 550 μL of RIPA buffer for 10 minutes on ice. Lysates were cleared at 16000 g for 10 minutes at 4° C. 10% of the lysate was saved as input. The remaining lysates were incubated with 150 μL Pierce Anti-[…] Magnetic beads (Thermo Fisher) O/N at 4° C. with constant rotation. Beads were washed 3 times with a buffer containing 10 mM Tris-HCl pH7.5 (Thermo Fisher), 2 mM EDTA (Thermo Fisher), 1% Nonidet-P40 Substitute (Roche) and 50 mM NaCl (Thermo Fisher), and 2 times with RIPA buffer. Proteins were eluted by adding 150 μL of non-reducing Laemmli (Boston bioproducts) containing 20 mM DTT (Thermo Fisher) and boiled for 20 minutes. Input was diluted with 2× sample buffer (Sigma).
(§1) MLN7243 was added again after medium replacement. Cells were stimulated for the indicated times.

For another test, the system named is BJ1 fibroblasts. As to the kind of experiment: Immunoblot of STING signaling in BJ1 fibroblasts stimulated with cGAMP. Particulars: cGAMP 2 hours, 0.5 μM MLN7243, FIG. 5D. The protocol: as §1
Samples for pull-downs or immunoprecipitations were treated as described in the corresponding paragraphs. For experiments involving seeding of cells in 6 well plates or 24 well plates (293 Ts and hTert-BJ1), one well per condition was harvested, lysed in RIPA buffer (Boston Bioproducts) containing complete, Mini, EDTA-free Protease Inhibitor Cocktail (Millipore Sigma) and PhosSTOP (Millipore Sigma) for 10 minutes on ice. Lysates were cleared by centrifugation at 16000 g for 10 minutes at 4° C. and Laemmli 6×, Sample buffer, SDS, and reducing agents (Boston Bioproducts) were added prior to loading. Samples were run on NuPAGE 4 to 12%, Bis-Tris Gels (Thermo Fisher) and transferred on nitrocellulose membrane with an iBlot2 (Thermo Fisher). Membranes were blocked in 5% non-fat milk in TBS Tween. Antibodies against phospho-proteins were incubated in 5% BSA TBS tween. ECL signal was recorded on a ChemiDoc Biorad Imager. Data was analyzed with ImageLab (Biorad).

Another test concerns CD14+ monocytes. As to the kind of experiment: Immunoblot of phospho-STING in CD14+ monocytes from healthy donors. Particulars: 5 μg/mL 2′3′-cGAMP, 6 hours, MLN7243, FIG. 12K. The text has this:
FIGS. 12A-12O show involvement of ESCRT components in ubiquitination and degradation of STING. […] One representative blot of n=2 independent experiments. […] One representative plot of n=3 technical replicates. […] Each dot represents one technical replicate. Paired t-test, *** p<0.001. […] One representative plot of n=3 independent experiments with n=2 technical replicates per experiment. […] Each dot represents an individual replicate. One-way ANOVA with Dunnet's multiple comparisons. **** p<0.0001, *** p<0.001. […] FIGS. 12G-12J show immunofluorescence in 293T stably expressing STING-HA after stimulation with cGAMP for 2 hours. […] Dashed boxes represent the cropped regions shown in the right panels. One representative field of n≥5 fields in n=2 independent experiments. Scale bar is 10 μm. […] One representative blot of n=3 independent donors in n=2 independent experiments. […] One representative experiment of n=3 independent experiments with n=2 technical replicates. […] Friedman test with Dunn's multiple comparison test. **** p<0.0001, ** p<0.01, ns: not significant.
CD14+ monocytes were isolated from peripheral adult human blood as previously described 1. […]
Samples for pull-downs or immunoprecipitations were treated as described in the corresponding paragraphs. […] ECL signal was recorded on a ChemiDoc Biorad Imager. Data was analyzed with ImageLab (Biorad).

On to `NS(=O)(=O)OC[C@H]1C[C@@H](Nc2ccnc3cc(-c4cccc(SC(F)(F)F)c4)nn23)[C@H](O)[C@@H]1O` [MLN7243], for which, in the test with STING ubiquitination, the STING ubiquitination result was “blocked STING ubiquitination”. Further, in the test on BJ1 fibroblasts, the STING degradation entry is given as “abrogated STING degradation”, the “lipidated LC3B” value was “induced accumulation of lipidated LC3B” and the phospho-STING signaling result is “increased phospho-STING signaling”. In addition, the phospho-STING levels entry with CD14+ monocytes is recorded as “strong increase in phospho-STING levels”.
